Source: article PMC11433764, “A Novel Compound from the Phenylsulfonylpiperazine Class: Evaluation of In Vitro Activity on Luminal Breast Cancer Cells” (Molecules, 2024)
Where two headings read alike, the source gives them in different places.

Key:
Type in all cases: cell-based
MDA-MB-231 = assay: MTT cell viability, MDA-MB-231; set-up: key to SI MDA-MB-231: NS: the compound was more active in the non-tumor cell line; details: for IC50: Homo sapiens, MDA-MB-231, 48 h, MTT; for SI MDA-MB-231: IC50 MCF10A / IC50 MDA-MB-231
Protocol: (§1) Four different breast cells lines were used in this study: MCF-10A (non-tumorigenic), MCF7 (ER+ BC), MDA-MB453 (HER2+ BC) and MDA-MB231 (TNBC). All lineages were obtained from the American Type Culture Collection (ATCC; Manassas, VA, USA) and maintained at a temperature of 37 °C according to the supplier’s recommendations. Only MDA-MB231 cells were not kept in an atmosphere of 5% CO2. MCF-10A was grown in Dulbecco’s Modified Eagle’s Medium (DMEM F12, Gibco, ThermoFisher Scientific, Waltham, MA, USA) supplemented with 20 ng/mL epidermal growth factor (Gibco, ThermoFisher Scientific, Waltham, MA, USA), 0.5 μg/mL hydrocortisone (Sigma-Aldrich, Sigma-Aldrich, St. Louis, MO, USA) and 10 μg/mL insulin (Gibco, ThermoFisher Scientific, Waltham, MA, USA). MCF7 was cultivated in Roswell Park Memorial Institute Medium (RPMI-1640, Gibco, ThermoFisher Scientific, Waltham, MA, USA), MDA-MB453 in IMDM and MDA-MB231 in Leibovitz’s medium (L-15, Gibco, ThermoFisher Scientific, Waltham, MA, USA). All media were supplemented with 10% fetal bovine serum (FBS, Gibco, ThermoFisher Scientific, Waltham, MA, USA) and 50 µg/mL of gentamicin (Cultilab, Campinas, SP, Brazil). The cells were confirmed to be free of mycoplasma and passaged using a 0.25% trypsin-EDTA solution when confluency reached 80–90%.
(§2) Cell viability was determined by spectrophotometric quantification of MTT (3-[4,5-dimethyl-thiazol-2-yl]-2,5-diphenyltetrazolium bromide—Invitrogen. Waltham, MA, USA) reduction to formazan crystals. Cells were seeded at the density of 1 × 10^4 cells/well (MCF-10A, MDA-MB453), 1.5 × 10^4 cells/well (MDA-MB231) and 3 × 10^3 cells/well (MCF7) in 96-well culture dishes and incubated with different concentrations of the compounds (1.25, 2.5, 5, 10, 20, 40, 80 and 160 µM) for 48 h. The medium was than replaced by MTT solution (0.5 mg/mL) and plates were kept at 37 °C for 4 h. After the aspiration of the media, the formazan crystals were diluted with 100 μL of dimethyl-sulfoxide (DMSO)/well and the absorbance at 570 nm was measured using a spectrophotometer (Thermo Plate TP-Reader, Waltham, MA, USA). Cytotoxicity was calculated using the following formula: Cytotoxicity (%) = [absorbance of cells treated with the compounds/absorbance of cells treated with DMSO) × 100]. The IC50 was determined for each compound and was defined as the concentration required to inhibit 50% of cell growth, compared to the control sample (cells treated with DMSO 0.05%).
(§3) Data were presented as the mean ± standard deviation (SD) and analyzed using GraphPad Prism 9.0 software (GraphPad Software Inc., La Jolla, CA, USA). All data were assayed in triplicate. Statistical analysis was performed using one-way ANOVA, Tukey´s HSD post hoc test and Student’s t-test. The IC50 was calculated using non-linear regression and the selectivity index (SI) was calculated by the ratio between the IC50 values corresponding to the non-tumor cell lineage (MCF-10A) and the IC50 values corresponding to the BC cell lines. Statistical significance was accepted at p values < 0.05.

MCF-10A = assay: MTT cell viability, non-tumor cell line MCF-10A; details: 48 h; for Cytotoxicity to the MCF-10A cell line (in words): up to 160 μM; for IC50: Homo sapiens, MCF-10A
Protocol: as §1, §2, §3

MCF7 = assay: MTT cell viability, MCF7; set-up: key to SI MCF7: NS: the compound was more active in the non-tumor cell line; details: for IC50: Homo sapiens, MCF7, 48 h, MTT; for SI MCF7: IC50 MCF10A / IC50 MCF7
Protocol: as §1, §2, §3

MDA-MB-453 = assay: MTT cell viability, MDA-MB-453; set-up: key to SI MDA-MB-453: NS: the compound was more active in the non-tumor cell line; details: for IC50: Homo sapiens, MDA-MB-453, 48 h, MTT; for SI MDA-MB-453: IC50 MCF10A / IC50 MDA-MB-453
Protocol: as §1, §2, §3

[1] = tested on: tumor cells MCF7, MDA-MB-453 and MDA-MB-231; assay: MTT cell viability, tumor cells (stated collectively); details: for IC50: 48 h, MTT, tumor cells stated collectively
Protocol: as §1, §2, §3

[2] = 1.25–160 μM, read-out: IC50 MDA-MB-231
[3] = 1.25–160 μM, read-out: IC50 MCF-10A
[4] = 1.25–160 μM, read-out: IC50 MCF7
[5] = 1.25–160 μM, read-out: IC50 MDA-MB-453
[6] = read-out: IC50 MD-AMB 231 (Table S1)
[7] = read-out: IC50 MCF-10A (Table S1)
[8] = read-out: IC50 MD-AMB 453 (Table S1)

| Structure (SMILES) | IC50 (MDA-MB-231; [2]) [µM] | SI MDA-MB-231 (MDA-MB-231) | Cytotoxicity to the MCF-10A cell line (in words) (MCF-10A) | IC50 (MCF-10A; [3]) [µM] | IC50 (MCF7; [4]) [µM] | IC50 (MDA-MB-453; [5]) [µM] | IC50 [1] [µM] | SI MCF7 (MCF7) | SI MDA-MB-453 (MDA-MB-453) | Selectivity for tumor cells over MCF-10A (in words) [1] | IC50 (MDA-MB-231; [6]) [µM] | IC50 (MCF-10A; [7]) [µM] | IC50 (MCF7; read-out: IC50 MCF7 (Table S1)) [µM] | IC50 (MDA-MB-453; [8]) [µM] |
| --- | --- | --- | --- | --- | --- | --- | --- | --- | --- | --- | --- | --- | --- | --- |
| N#Cc1ccc(C(=O)N2CCN(S(=O)(=O)c3ccc(Cl)cc3)CC2)cc1 [Compound 1] | 84.9 | >1.88 | not cytotoxic | > 160 | > 160 | > 160 | > 50 |  |  |  |  |  |  |  |
| CN(C)CCOc1ccc(C(=O)N2CCN(S(=O)(=O)c3ccc(Cl)cc3)CC2)cc1 [Compound 2] | 61.3 | 1.44 |  | 88.2 | > 160 | 50.5 |  | NS | 1.75 |  |  |  |  |  |
| O=C(c1ccc(Cl)nc1)N1CCN(S(=O)(=O)c2ccc(Cl)cc2)CC1 [Compound 4] | 112 | >1.42 | not cytotoxic | > 160 | > 160 | > 160 | > 50 |  |  |  |  |  |  |  |
| CN(C)CCNc1ccc(C(=O)N2CCN(S(=O)(=O)c3ccc(Cl)cc3)CC2)cn1 [Compound 5] | > 160 |  | not cytotoxic | > 160 | 82.9 | > 160 | > 50 | >1.93 |  |  |  |  |  |  |
| CCOC(=O)c1ccc(N2CCN(S(=O)(=O)c3ccc(Cl)cc3)CC2)nc1 [Compound 6] | 53.1 | >3.01 | not cytotoxic | > 160 | > 160 | > 160 | > 50 |  |  |  |  |  |  |  |
| O=S(=O)(c1ccc(Cl)cc1)N1CCN(c2ccc(CO)cn2)CC1 [Compound 7] | 107 | 0.85 |  | 91.2 | > 160 | > 160 |  | NS | NS |  |  |  |  |  |
| O=C(c1ccc(N2CCN(S(=O)(=O)c3ccc(Cl)cc3)CC2)nc1)N1CCCC1 [Compound 8] | 135 | NS |  | 86 | 154 | 92.5 |  | NS | NS |  |  |  |  |  |
| CN(C)C(=O)c1ccc(N2CCN(S(=O)(=O)c3ccc(Cl)cc3)CC2)nc1 [Compound 9] | > 160 | NS |  | 63.9 | > 160 | > 160 |  | NS | NS |  |  |  |  |  |
| CN(C)Cc1ccc(N2CCN(S(=O)(=O)c3ccc(Cl)cc3)CC2)nc1 [Compound 10] | > 160 | NS |  | 109 | 62 | 48.4 | < 50 | 1.75 | 2.25 |  |  |  |  |  |
| CN(C)Cc1ccc(N2CCN(S(=O)(=O)c3ccc(F)cc3)CC2)nc1 [Compound 11] | > 160 |  |  | > 160 | 20 | 109 |  |  | >1.47 |  |  |  |  |  |
| CN(C)CCOc1ccc(N2CCN(S(=O)(=O)c3ccc(Cl)cc3)CC2)cc1 [Compound 12] | > 160 | NS |  | 68.3 | 49.9 | 136 | < 50 | 1.37 | NS | not selective |  |  |  |  |
| O=S(=O)(c1ccc(Cl)cc1)N1CCNCC1 [Compound 13] |  |  |  |  |  |  |  |  |  |  | > 160 | > 160 | > 160 | > 160 |
| Cc1ccc(S(=O)(=O)N2CCN(c3ccc(C(=O)N(C)C)cn3)CC2)cc1 [Compound 14] |  |  |  |  |  |  |  |  |  |  | > 160 | > 160 | > 160 | > 160 |
| CN(C)C(=O)c1ccc(N2CCN(S(=O)(=O)c3ccccc3)CC2)nc1 [Compound 15] |  |  |  |  |  |  |  |  |  |  | > 160 | > 160 | > 160 | > 160 |
| O=C(O)c1ccc(N2CCN(S(=O)(=O)c3ccc(Cl)cc3)CC2)nc1 [Compound 16] |  |  |  |  |  |  |  |  |  |  | > 160 | > 160 | > 160 | > 160 |
| O=C(c1ccc(N2CCN(S(=O)(=O)c3ccc(Cl)cc3)CC2)nc1)N1CCOCC1 [Compound 17] |  |  |  |  |  |  |  |  |  |  | > 160 | > 160 | > 160 | > 160 |
| CN1CCN(C(=O)c2ccc(N3CCN(S(=O)(=O)c4ccc(Cl)cc4)CC3)nc2)CC1 [Compound 18] |  |  |  |  |  |  |  |  |  |  | > 160 | > 160 | > 160 | > 160 |
| O=S(=O)(c1ccc(F)cc1)N1CCN(c2ccccc2)CC1 [Compound 19] |  |  |  |  |  |  |  |  |  |  | > 160 | > 160 | > 160 | > 160 |
| O=S(=O)(c1ccc(Cl)cc1)N1CCN(c2ccc(O)cc2)CC1 [Compound 20] |  |  |  |  |  |  |  |  |  |  | > 160 | > 160 | > 160 | > 160 |
